From US12077778B2, “Methods of generating human inner ear sensory epithelia and sensory neurons” (INDIANA UNIVERSITY RESEARCH AND TECHNOLOGY CORPORATION, priority 2015, dated 2024) come the findings set out here.

Entries after “also recorded” stand apart in the source; their conditions may differ.

What all share (assay type): cell-based, human
The subject of one assay is OEPD-induced aggregates. Briefly: qPCR of PAX8/PAX2 expression after WNT and FGF signaling modulation, days 8-10. As to conditions: one exploratory experiment. As for the experimental part:
Thus, we changed strategies by lengthening the initial culture phase to 12 days (with addition of fresh media on day 8) and testing the effect of transitioning the aggregates to Matrigel™ droplets.
Quantitative PCR. Analysis was performed as previously described on an ABI PRISM 7900HT Sequence Detection System (Applied Biosystems) or a Bio-Rad CFX96 quantitative PCR machine (Bio-Rad)^6. Data were normalized to L27 expression (internal control) and the fold change was calculated relative to Ct values from d0 WA25 aggregates using the ΔΔCt method. Unless stated otherwise, data represent at least 3 separate biological samples from separate experiments. All indicators of statistical significance refer to comparisons between a given condition and the control group. Refer to Table 4 for primer details.

Another assay relates to WA25 cell aggregates. The assay can be described thus: Non-neural ectoderm induction in WA25 hESC aggregates (qPCR, immunostaining). The protocol:
Following a 2-day incubation in E8 Medium, we transferred aggregates to CDM containing a low concentration of Matrigel and FGF-2 to stimulate epithelization and ectoderm differentiation on the aggregate surface. […] Remarkably, 100% of SB treated aggregates generated TFAP2^+ E-cadherin (ECAD)^+ epithelium with a surface ectoderm-like morphology by days 4-6 of differentiation—a time scale consistent with human embryogenesis (n=15 aggregates, 3 experiments; FIGS. 1B-1E; FIGS. 3A-3G). Over a period of 20 days, the epithelium expanded into a cyst composed of TFAP2^+ Keratin-5 (KRT5)^+ keratinocyte-like cells (FIGS. 6A-6E). From these findings, we concluded that treating WA25 cell aggregates with SB is sufficient to induce a non-neural epithelium.
(§1) Curious whether endogenous BMP activity is sufficient for non-neural specification, we performed a co-treatment with the BMP inhibitor, LDN-193189 (hereafter, LSB; dual LDN/SB treatment referred to as LSB). […] We reasoned that variation in endogenous BMP levels may underlie the different outcomes and the BMP concentration may need to be fine-tuned for each cell line. […] With either the SB or SBB approaches, the resulting epithelia closely resembled […] generated with mPSCs^5,6. In contrast to our mouse culture, non-neural conversion occurs without off-target induction of Brachyury (BRA)^+ mesendoderm cells (FIGS. 9A-9C). The following data were generated using either the SB (WA25) or SBB (mND2-0) approaches.
hPSC differentiation. To start differentiation, hPSC cells were dissociated with StemPro Accutase (Invitrogen) and distributed, 5,000 cells per well, onto 96-well V-bottom plates in E8 medium containing 20 μM Y-27632 (Stemgent) and Normocin. […] CDM contained a 50:50 mixture of F-12 Nutrient Mixture with GlutaMAX (Gibco) and Iscove's Modified Dulbecco's Medium with GlutaMAX (IMDM; Gibco) additionally supplemented with 0.5% Bovine Serum Albumin (BSA), 1× Chemically Defined Lipid Concentrate (Invitrogen), […] (Sigma), 15 μg ml^−1 Transferrin (Sigma), 450 μM Mono-Thioglycerol, and Normocin (see Table 1 for a detailed formulation). […] For some experiments, CDM containing a 18 μM CHIR99021 (3 μM final concentration; Stemgent) was added to the pre-existing 125 μl of media in each well—we determined that this treatment is optional for inner ear organoid production, but may improve induction of otic placode-like cells. […]
Quantitative PCR. Analysis was performed as previously described on an ABI PRISM 7900HT Sequence Detection System (Applied Biosystems) or a Bio-Rad CFX96 quantitative PCR machine (Bio-Rad)^6. Data were normalized to L27 expression (internal control) and the fold change was calculated relative to Ct values from d0 WA25 aggregates using the ΔΔCt method. […]

For a further assay, the system named is mND2-0 iPSCs. The assay can be described thus: Non-neural ectoderm induction in mND2-0 iPSC aggregates.
Source text: as §1
hPSC differentiation. To start differentiation, hPSC cells were dissociated with StemPro Accutase (Invitrogen) and distributed, 5,000 cells per well, onto 96-well V-bottom plates in E8 medium containing 20 μM Y-27632 (Stemgent) and Normocin. […] For some experiments, CDM containing a 18 μM CHIR99021 (3 μM final concentration; Stemgent) was added to the pre-existing 125 μl of media in each well—we determined that this treatment is optional for inner ear organoid production, but may improve induction of otic placode-like cells. […]

[1] abbreviates: day 2, 10 μM SB, or 10 μM SB + 10 ng/ml BMP4 (SBB).

In the case of `Oc1nc(-c2ccc(C(F)(F)F)cc2)nc2c1CSCC2` [XAV939], the “PAX2 expression (qPCR) compared to DMSO controls” value in the assay with OEPD-induced aggregates is recorded as “only had a modest positive or negative impact on PAX2 expression”.

With `CCN(CC)CCCCNc1ncc2cc(-c3cc(OC)cc(OC)c3)c(NC(=O)NC(C)(C)C)nc2n1` [PD-173074], in the assay with OEPD-induced aggregates, the “PAX2 expression (qPCR) compared to DMSO controls” value was “likely inhibits PAX2 expression”.

`NC(=O)c1ccc(-c2nc(-c3ccc4c(c3)OCO4)c(-c3ccccn3)[nH]2)cc1` [SB, SB-431542]: the “aggregates that generated TFAP2+ E-cadherin (ECAD)+ epithelium with surface ectoderm-like morphology” value with WA25 cell aggregates (10 μM SB, days 4-6 of differentiation, n=15 aggregates, 3 experiments) is recorded as 100%. In the assay on WA25 cell aggregates (setting [1]), the “extraembryonic marker CDX2 expression (qPCR)” value is listed as “no corresponding CDX2 expression”; the “non-neural marker genes TFAP2 and DLX3 expression (qPCR)” value was “upregulated; also recorded: increase in TFAP2 and DLX3 expression”. In addition, in the assay with mND2-0 iPSCs (mND2-0 iPSCs, day 6, 10 μM SB alone or with 2.5 ng/ml BMP4), the “cell types generated (marker immunostaining)” value was “generated PAX6^+ neuroectoderm and TFAP2^+ ECAD^− neural crest-like cells”.

B1: BMP4: recombinant human BMP4, agonist of BMP signaling (protein, UniProt P12644 293-408, looked up)
Bone morphogenetic protein 4: SPKHHSQRARKKNKNCRRHSLYVDFSDVGWNDWIVAPPGYQAFYCHGDCPFPLADHLNSTNHAIVQTLVNSVNSSIPKACCVPTELSAISMLYLDEYDKVVLKNYQEMVVEGCGCR
Turning to B1, the “mesendoderm markers BRA and EOMES expression (qPCR)” value in the assay with WA25 cell aggregates (day 2, BMP4 (B) treatment) is recorded as “upregulated”. Also, the “minimum BMP concentration that produced the morphological changes (translucent sphere)” value with mND2-0 iPSCs (mND2-0 iPSCs with SB, 1.25-40 ng/ml tested, preliminary experiment) turned out to be 2.5 ng/ml.
